{"source": "the NIST ThermoML archive (doi:10.1021/je2011314)", "key": {"[1]": {"details": "298.15 K; 101.33 kPa; Liquid; Vibrating tube method"}, "[2]": {"experiment": "xn = mol fraction of the nth substance listed", "details": "298.15 K, 101 kPa, Liquid, Vibrating tube method"}}, "note": "Numbers after ± are expanded uncertainties.", "data": [{"smiles": "COC(C)(C)C", "note": "[2-methoxy-2-methylpropane]", "values": [{"measurement": "mass density", "setting": "[1]", "value": "735.21 ± 0.62", "unit": "kg/m3"}]}, {"smiles": "CCO", "note": "[ethanol]", "values": [{"measurement": "mass density", "setting": "[1]", "value": "785.31 ± 0.62", "unit": "kg/m3"}]}, {"smiles": "CCCO", "note": "[propan-1-ol]", "values": [{"measurement": "mass density", "setting": "[1]", "value": "799.7 ± 0.62", "unit": "kg/m3"}]}, {"smiles": "CC(C)OC(C)C", "note": "[diisopropyl ether]", "values": [{"measurement": "mass density", "setting": "[1]", "value": "718.24 ± 0.64", "unit": "kg/m3"}]}, {"smiles": "CC(C)OC(C)C", "note": "[diisopropyl ether] + CC(C)CC(C)(C)C", "values": [{"measurement": "mass density", "setting": "[2]; x2 = 0.3056", "value": "706.86 ± 0.22", "unit": "kg/m3"}, {"measurement": "mass density", "setting": "[2]; x2 = 0.3066", "value": "706.7 ± 0.22", "unit": "kg/m3"}, {"measurement": "mass density", "setting": "[2]; x2 = 0.5009", "value": "700.59 ± 0.21", "unit": "kg/m3"}, {"measurement": "mass density", "setting": "[2]; x2 = 0.5027", "value": "700.42 ± 0.21", "unit": "kg/m3"}, {"measurement": "mass density", "setting": "[2]; x2 = 0.5046", "value": "700.41 ± 0.21", "unit": "kg/m3"}, {"measurement": "mass density", "setting": "[2]; x2 = 0.7004", "value": "694.83 ± 0.19", "unit": "kg/m3"}, {"measurement": "mass density", "setting": "[2]; x2 = 0.7009", "value": "694.86 ± 0.19", "unit": "kg/m3"}, {"measurement": "mass density", "setting": "[2]; x2 = 0.7025", "value": "694.86 ± 0.19", "unit": "kg/m3"}]}, {"smiles": "CC(C)CC(C)(C)C", "note": "[2,2,4-trimethylpentane]", "values": [{"measurement": "mass density", "setting": "[1]", "value": "687.62 ± 0.62", "unit": "kg/m3"}]}, {"smiles": "CO", "note": "[methanol]", "values": [{"measurement": "mass density", "setting": "[1]", "value": "786.56 ± 0.61", "unit": "kg/m3"}]}, {"smiles": "COC(C)(C)C", "note": "[2-methoxy-2-methylpropane] + CC(C)CC(C)(C)C", "values": [{"measurement": "mass density", "setting": "[2]; x2 = 0.2997", "value": "716 ± 0.17", "unit": "kg/m3"}, {"measurement": "mass density", "setting": "[2]; x2 = 0.3004", "value": "715.84 ± 0.17", "unit": "kg/m3"}, {"measurement": "mass density", "setting": "[2]; x2 = 0.3012", "value": "715.86 ± 0.17", "unit": "kg/m3"}, {"measurement": "mass density", "setting": "[2]; x2 = 0.5018", "value": "705.83 ± 0.18", "unit": "kg/m3"}, {"measurement": "mass density", "setting": "[2]; x2 = 0.5019", "value": "705.9 ± 0.18", "unit": "kg/m3"}, {"measurement": "mass density", "setting": "[2]; x2 = 0.5037", "value": "705.72 ± 0.18", "unit": "kg/m3"}, {"measurement": "mass density", "setting": "[2]; x2 = 0.6707", "value": "698.67 ± 0.18", "unit": "kg/m3"}, {"measurement": "mass density", "setting": "[2]; x2 = 0.7056", "value": "697.4 ± 0.18", "unit": "kg/m3"}, {"measurement": "mass density", "setting": "[2]; x2 = 0.7134", "value": "697.17 ± 0.18", "unit": "kg/m3"}]}]}
